The values that follow come from publication PMC12366525, “Characterization of allosteric modulators that disrupt androgen receptor co-activator protein-protein interactions to alter transactivation–Drug leads for metastatic castration resistant prostate cancer” (SLAS discovery : advancing life sciences R & D, 2023).

Broadly, the IC50 is the concentration that gives 50% inhibition.

The first assay deals with T1, AR-LBD (Homo sapiens, UniProt P10275).
T1 construct: The pET28a-AR-LBD (622–919) construct [78] was a gift; made in house
T1 sequence (P10275 622-919): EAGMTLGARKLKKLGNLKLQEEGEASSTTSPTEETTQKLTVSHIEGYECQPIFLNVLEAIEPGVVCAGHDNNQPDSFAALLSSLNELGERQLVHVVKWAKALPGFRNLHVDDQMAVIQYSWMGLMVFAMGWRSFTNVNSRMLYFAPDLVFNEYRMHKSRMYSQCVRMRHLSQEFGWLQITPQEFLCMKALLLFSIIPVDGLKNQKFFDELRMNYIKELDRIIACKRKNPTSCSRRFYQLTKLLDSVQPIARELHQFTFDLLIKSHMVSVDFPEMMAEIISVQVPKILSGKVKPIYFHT
Description: H^3-DHT radioligand competition binding assay. Particulars: 10 nM H^3-DHT, recombinant His6-AR-LBD. The method, then: The His6-AR-LBD H^3-DHT competition binding assay has been described previously. Briefly, 96-well Cu^2+-coated plates (ThermoFisher) were incubated overnight at 4 °C with 5 μg per well His6-AR-LBD in 100 μL of PBS. Unbound His6-AR-LBD was aspirated, the plate was washed 3 × with 100 μL of 0.05% Tween 20 in PBS and then blocked with 100 μL of 1 mg/mL BSA in PBS for 1 h. After three more washes with 100 μL of PBS and 0.05% Tween 20, 40 μL of PBS was added to wells followed by 5 μL each of diluted compounds and 100 nM H^3-DHT transferred into the wells using a Matrix pipettor. Compounds were tested between 0.098 to 50 μM in the presence of 10 nM H^3-DHT. After 1 h, compounds and H^3-DHT were aspirated and washed 3 × with 0.05% Tween 20 in PBS; 100 μL of Microscint™−20 micro-scintillation cocktail buffer (Perkin Elmer, Waltham, MA) was added to each well, plates were sealed with adhesive plastic covers; and the counts per minute (CPMs) were captured in a TopCount NXT microtiter plate reader (Perkin Elmer, Waltham, MA).
(In general: Loss of bound radioactivity is the signal in a displacement assay; it reports binding, not function.)
Take `Cc1ccccc1-c1cc(O)c2c(c1)CN(c1nc(C(N)=O)cs1)CCO2` [S1–1]: the IC50 is 43.7 µM.
On the same count and under the same terms, the value for `Cc1ccccc1-c1cc(O)c2c(c1)CN(c1nccs1)CCO2` [S1–3] was above 100 µM; that for `Cc1c(-c2ccccc2F)[nH]c2ccc(CNC(=O)c3ccc(CO)o3)cc12` [S3–14] was 62.9 µM.

The subject of a further assay is PSA. Briefly: Dot blot of PSA secretion by C4–2 cells. It counts as cell-based, human. Particulars: 10 nM DHT 24 h; 20 μM compound 3 h pre-exposure. The method, then:
To determine PSA secretion levels, C4–2 cells were seeded at 1.4 × 10 [5] cells/well in 12-well plates and treated as described above for PSA cell expression experiments. […] 500 μL of conditioned media supernatant was added to the wells of 96-well to Bio-blot apparatus (BioRad, Hercules, CA) containing a nitrocellulose membrane and was allowed to pass through and attach to the membrane under gravity for 3–4 h at room temperature. The membrane was washed 1x with 500 μL TBS under vacuum, blocked with 1% BSA in TBST for 1 h, and then incubated overnight at 4 °C with the primary rabbit anti-hPSA antibody (Cell Signaling, Danvers, MA) diluted 1:1000 in TBST plus 1% BSA. Dot blots were washed 3x in 10 mL of TBST for 10 min, then incubated for 1 h with secondary goat anti-rabbit-IgG HRP conjugated antibody (Invitrogen, Carlsbad, CA) diluted 1:10,000 in TBST plus 1% Bovine Serum Albumin (BSA), washed 3x with 10 mL of TBST for 10 min, and then developed with Pierce ECL western blotting substrate. Images of ECL dot blots were acquired on an iBright 1500 imaging system and quantified by iBright image analysis software.
`Cc1ccccc1-c1cc(O)c2c(c1)CN(c1nc(C(N)=O)cs1)CCO2` [S1–1]: the “C4-2 cell supernatants PSA Dot Blot, relative to DMSO (100%)” value came to 57.7%.
With `Cc1nsc(NC(=O)N2CCC(Sc3ccccc3C)CC2)n1` [S2–6], the “C4-2 cell supernatants PSA Dot Blot, relative to DMSO (100%)” value was 12.8%.
For `Cc1c(-c2ccccc2F)[nH]c2ccc(CNC(=O)CCc3cn[nH]c3)cc12` [S3–11], the “C4-2 cell supernatants PSA Dot Blot, relative to DMSO (100%)” value worked out at 25.5%.
